Assay results: US12594265B2, “Methods and compositions for inhibition of STAT3” (Ohio State Innovation Foundation, priority 2017, dated 2026)
Like-named read-outs stand apart in the source and are kept apart here.

Key:
[1] = tested on: IL-17 production in PBMCs from MS patients; format: cell-based, human; conditions: for IL-17 production in PBMCs from MS patients: activated with anti-CD3 for three or six days, different concentrations
Method: FIGS. 14A-14M show representative data for LLL12b suppression of human Th17 development and promotion of Treg development in CD4 T-cells from MS patients. FIGS. 14A, 14E, 14H, and 14K each shown representative data obtained in PBMCs from 22 treatment-naïve MS patients that were activated with αhCD3 plus rhIL-6 for 3 days, in the presence of 0.125 μM or 0.25 μM of LLL12b. DMSO was used as a vehicle control. IL-17 in supernatant was determined by ELISA. FIGS. 14B-14C, 14F, 14I, and 14L each shown representative data obtained in PBMCs from 22 treatment-naïve MS patients that were activated with αhCD3/CD28 plus rhTGFβ. rhIL-2 and RA for 3 days, in the presence of 0.125 μM of LLL12b. DMSO was used as vehicle control. CD25+FoxP3+CD4+ iTregs were determined by intracellular flow cytometry. Cells were gated CD45RA+CD4+ cells. […] IL-17 in each group was compared with one-way ANOVA. […] FIG. 14G the calculated IL-17/Treg ratio of each patient in LLL12b group and DMSO group and compared with Wilcoxon matched-pairs signed rank test. […] FIG. 14J the calculated percent decrease of IL-17/Treg ratio in LLL12b group compared to DMSO group. […] FIG. 14M patient numbers in different ranges of calculated percent decrease of IL-17/Treg.
FIGS. 12A-12B show representative data for the effect of a representative disclosed compound, LLL12b, on the production of proinflammatory cytokines in human peripheral blood mononuclear cells (PBMCs).
LLL12b reduces Teff/Treg ratio by suppressing human Th17 development and promoting Treg development of CD4 T cells from MS patients. Teff/Treg balance is critical for the normal function of the human immune system and increased Teff/Treg ratio favors autoimmunity. As IL-6/STAT3 signaling pathway is critical for the highly encephalitogenic Th17 cells while blocks the development of inducible Tregs (iTregs), we hypothesize that novel small molecule STAT3 inhibitor LLL12b will reduces Teff/Treg ratio by suppressing Th17 development and/or prompting iTreg development. Therefore, we determined the effects of LLL12b on IL-17 production and iTreg development of CD4 T cells from 22 treatment-naïve MS patients (FIGS. 14A-14M). Human PBMCs from 22 treatment-naïve MS patients were activated with αhCD3 for 3 days, in the presence of different concentrations of LLL12b or vehicle control (DMSO), IL-17 production in supernatants was determined by ELISA. As the myelin-reactive CD4 T cells in MS patients are predominantly from the memory T-cell compartment, we activated human PBMCs with αhCD3 to specifically activate effector/memory CD4 T cells.
To determine whether LLL12b treatment decreases Th17/Treg ratio in CD4 T cells from MS patients, the IL-17/Treg ratio of all 22 treatment-naïve MS patients treated with LLL12b was calculated and compared with those treated with DMSO (FIGS. 14G, 14J, and 14M). The data in Table 2 show the patient numbers in different ranges of percentage decrease of IL-17, percentage increase of iTregs or percentage decrease of IL-17/iTreg of 22 treatment-naïve MS patients treated with LLL12b compared to DMSO treatment.

in vivo = assay: in vivo; parameters: species or system mice
[2] = of 22 treatment-naïve MS patients, compared to DMSO
[3] = mouse, in vivo, mice, Intravenous 2 mg/kg
[4] = mouse, in vivo, mice, Oral 8 mg/kg

NS(=O)(=O)c1cccc2c1C(=O)c1cccc(O)c1C2=O [LLL12]
IL-17 production in PBMCs from MS patients [1]: suppress IL-17 production | Tmax (in vivo; mouse, in vivo): 5 to 10 min | time until cleared (in vivo; mouse, in vivo): ~60 min | AUC (in vivo; mouse, in vivo, ip, 20 mg/kg): 0.431 µM·h | AUC(0-inf) (in vivo; mouse, in vivo, ip, 20 mg/kg): 0.438 µM·h | Cmax (in vivo; mouse, in vivo, ip, 20 mg/kg): 922 nM | Tmax (in vivo; mouse, in vivo, ip, 20 mg/kg): 10 min | bioavailability (in vivo; mouse, in vivo, ip, 20 mg/kg): 29.1% | AUC (in vivo; mouse, in vivo, iv, 5 mg/kg): 0.373 µM·h | AUC(0-inf) (in vivo; mouse, in vivo, iv, 5 mg/kg): 0.377 µM·h | Cmax (in vivo; mouse, in vivo, iv, 5 mg/kg): 978 nM | Tmax (in vivo; mouse, in vivo, iv, 5 mg/kg): 10 min | bioavailability (in vivo; mouse, in vivo, iv, 5 mg/kg): 100% | time until cleared (in vivo; mouse, in vivo, po): about 30 minutes | AUC (in vivo; mouse, in vivo, po, 20 mg/kg): 0.0407 µM·h | Cmax (in vivo; mouse, in vivo, po, 20 mg/kg): 176 nM | Tmax (in vivo; mouse, in vivo, po, 20 mg/kg): 4.98 min | bioavailability (in vivo; mouse, in vivo, po, 20 mg/kg): 2.73%

CN(C)C(=O)Oc1cccc2c1C(=O)c1cccc(S(N)(=O)=O)c1C2=O [LLL12b]
hIL-17 production ([1]; 0.125 μM and 0.25 μM, one MS patient, 3 days): suppressed hIL-17 production | IL-17 production in effector/memory human CD4 T cells ([1]; 0.125 μM, 22 treatment-naïve MS patients): significantly suppressed IL-17 production | IL-17/Treg ratio ([1]; 22 treatment-naïve MS patients, compared to DMSO treated group): significantly lower | IL-17 production in PBMCs from MS patients [1]: suppress IL-17 production | patient numbers with % Decrease of IL-17 5-20% [1, 2]: 11 | patient numbers with % Decrease of IL-17 20-40% [1, 2]: 7 | patient numbers with % Decrease of IL-17/iTreg ratio 5-20% [1, 2]: 5 | patient numbers with % Decrease of IL-17/iTreg ratio 20-40% [1, 2]: 13 | patient numbers with % Decrease of IL-17/iTreg ratio <5% [1, 2]: 1 | patient numbers with % Decrease of IL-17/iTreg ratio >40% [1, 2]: 3 | patient numbers with % Decrease of IL-17 <5% [1, 2]: 1 | patient numbers with % Decrease of IL-17 >40% [1, 2]: 3 | duration of sustained effective concentration (in vivo; mice, IV): about 4 hours | duration of sustained effective concentration (in vivo; mice, PO): about 8 hours | AUC(0-t) (in vivo; [3]): 892 ± 131 ng·h/mL | Vd (in vivo; [3]): 12.4 ± 2.89 L/kg | clearance (in vivo; [3]): 36.5 mL/min/kg | half-life (in vivo; [3]): 233 ± 27 min | Cmax (in vivo; mouse, in vivo, mice, Intravenous 2 mg/kg, read-out: Co/Cmax): 2880 ± 935 ng/mL | AUC(0-t) (in vivo; [4]): 1360 ± 396 ng·h/mL | half-life (in vivo; [4]): 461 ± 115 min | Cmax (in vivo; mouse, in vivo, mice, Oral 8 mg/kg, read-out: Co/Cmax): 278 ± 93 ng/mL | Tmax (in vivo; mouse, in vivo, mice, Oral 8 mg/kg, read-out: Tmax): 11.4 ± 5.4 min | bioavailability (in vivo; mouse, in vivo, mice, printed in the Intravenous 2 mg/kg column, read-out: F (relative bioavailability)): 38%
